Calls of active or inactive are those of the source. The calls are words filed in the database; no cut-off is given here.
Assays:
[1] = system: HCC1937; assay: Cytotoxicity against human HCC1937 cells measured after 48 hrs by MTT assay; type: functional, cell-based; conditions: HCC1937, 48 h
[2] = system: MCF7; assay: Cell cycle arrest in human MCF7 cells assessed as accumulation of cells at G2 phase at 20 uM measured after 24 hrs by PI staining based flow cytometry assay (reference value: 14.91%); type: functional
[3] = system: MCF7; assay: Induction of apoptosis in human MCF7 cells assessed as viable cells at 20 uM measured after 24 hrs by AnnexinV/[…]-PI staining based flow cytometry method (Rvb =97 %); type: functional; conditions: read-out: Activity
[4] = system: A549; assay: Cytotoxicity against human A549 cells measured after 48 hrs by MTT assay; type: functional, cell-based; conditions: A549, 48 h
[5] = system: BGC-823; assay: Cytotoxicity against human BGC-823 cells measured after 48 hrs by MTT assay; type: functional, cell-based; conditions: BGC-823, 48 h
[6] = system: MCF7; assay: Induction of apoptosis in human MCF7 cells assessed as necrotic cells at 20 uM measured after 24 hrs by AnnexinV/[…]-PI staining based flow cytometry method (Rvb =1.28 %); type: functional
[7] = system: MCF7; assay: Cell cycle arrest in human MCF7 cells assessed as accumulation of cells at G1 phase at 20 uM measured after 24 hrs by PI staining based flow cytometry assay (reference value: 59.45%); type: functional
[8] = system: HepG2; assay: Cytotoxicity against human HepG2 cells measured after 48 hrs by MTT assay; type: functional, cell-based; conditions: HepG2, 48 h
[9] = Lipophilicity, logP of compound by shake flask method; type: physicochemical; conditions: octanol/water
[10] = system: MCF7; assay: Antimigratory activity against human MCF7 cells at 10 uM after 24 hrs by inverted fluorescence microscope analysis relative to control (reference value: 82.9%).; type: functional
[11] = system: MCF7; assay: Induction of apoptosis in human MCF7 cells assessed as early apoptotic cells at 20 uM measured after 24 hrs by AnnexinV/[…]-PI staining based flow cytometry method (Rvb =0.466 %); type: functional
[12] = system: HCT-116; assay: Cytotoxicity against human HCT-116 cells measured after 48 hrs by MTT assay; type: functional, cell-based; conditions: HCT-116, 48 h
[13] = system: MCF7; assay: Induction of apoptosis in human MCF7 cells assessed as late apoptotic cells at 20 uM measured after 24 hrs by AnnexinV/[…]-PI staining based flow cytometry method (Rvb =1.28 %); type: functional
[14] = system: MCF7; assay: Cell cycle arrest in human MCF7 cells assessed as accumulation of cells at S phase at 20 uM measured after 24 hrs by PI staining based flow cytometry assay (reference value: 25.64%); type: functional
[15] = system: MCF7; assay: Cytotoxicity against human MCF7 cells measured after 48 hrs by MTT assay; type: functional, cell-based; conditions: MCF7, 48 h
[16] = system: MCF7; assay: Cell cycle arrest in human MCF7 cells assessed as accumulation of cells at G2 phase at 10 uM measured after 24 hrs by PI staining based flow cytometry assay (reference value: 14.91%); type: functional
[17] = system: MCF7; assay: Induction of apoptosis in human MCF7 cells assessed as nuclear changes at 20 uM measured after 24 hrs by Hoechst 33342 staining based flourescence microscopy method; type: functional, cell-based
[18] = system: MCF7; assay: Induction of intracellular calcium level in human MCF7 cells at 5 to 10 uM measured after 24 hrs by Fluo-4AM staining based flourescence microscopy method; type: functional, cell-based; conditions: dose 5-10 µM
[19] = system: MCF7; assay: Anticlonogenic activity against human MCF7 cells assessed as inhibition of colony formation at 5 to 10 uM measured after 48 hrs by crystal violet staining based colony forming assay; type: functional, cell-based; conditions: dose 5-10 µM
[20] = system: MCF7; assay: Induction of apoptosis in human MCF7 cells assessed as early apoptotic cells at 10 uM measured after 24 hrs by AnnexinV/[…]-PI staining based flow cytometry method (Rvb =0.466 %); type: functional
[21] = system: MCF7; assay: Induction of apoptosis in human MCF7 cells at 20 uM measured after 24 hrs by AnnexinV/[…]-PI staining based flow cytometry method; type: functional
[22] = system: MCF7; assay: Induction of apoptosis in human MCF7 cells assessed as increase of Bax/Bcl2 ratio at 10 uM measured after 24 hrs by Western blot assay; type: functional, cell-based
[23] = system: MCF7; assay: Induction of apoptosis in human MCF7 cells assessed as decrease of COX-2 protein level at 10 uM measured after 24 hrs by Western blot assay; type: functional, cell-based
[24] = system: MCF7; assay: Induction of apoptosis in human MCF7 cells assessed as cell shrinkage at 20 uM measured after 24 hrs by Hoechst 33342 staining based flourescence microscopy method; type: functional
[25] = system: MCF7; assay: Cell cycle arrest in human MCF7 cells assessed as accumulation of cells at G1 phase at 10 uM measured after 24 hrs by PI staining based flow cytometry assay (reference value: 59.45%); type: functional
[26] = system: MCF7; assay: Induction of apoptosis in human MCF7 cells assessed as decrease of Bcl2 protein level at 10 uM measured after 24 hrs by Western blot assay; type: functional, cell-based
[27] = system: MCF7; assay: Antimigratory activity against human MCF7 cells at 5 uM after 24 hrs by inverted fluorescence microscope analysis relative to control (reference value: 82.9%); type: functional
[28] = system: MCF7; assay: Induction of apoptosis in human MCF7 cells assessed as late apoptotic cells at 10 uM measured after 24 hrs by AnnexinV/[…]-PI staining based flow cytometry method (Rvb =1.28 %); type: functional
[29] = system: MCF7; assay: Cell cycle arrest in human MCF7 cells assessed as accumulation of cells at S phase at 10 uM measured after 24 hrs by PI staining based flow cytometry assay (reference value: 25.64%); type: functional
[30] = system: MCF7; assay: Induction of apoptosis in human MCF7 cells assessed as viable cells at 10 uM measured after 24 hrs by AnnexinV/[…]-PI staining based flow cytometry method (Rvb =97 %); type: functional; conditions: read-out: Activity
[31] = system: MCF7; assay: Induction of apoptosis in human MCF7 cells assessed as necrotic cells at 10 uM measured after 24 hrs by AnnexinV/[…]-PI staining based flow cytometry method (Rvb =1.28 %); type: functional
[32] = system: MCF7; assay: Induction of mitochondrial membrane potential loss in human MCF7 cells at 5 to 10 uM measured after 24 hrs by JC-1 staining based flourescence microscopy method; type: functional, cell-based; conditions: dose 5-10 µM
[33] = system: MCF7; assay: Induction of apoptosis in human MCF7 cells assessed as increase in intracellular ROS levels at 10 uM measured after 24 hrs by DCFH-DA staining based flow cytometry method; type: functional, cell-based
[34] = system: MCF7; assay: Induction of apoptosis in human MCF7 cells assessed as increase of Bax protein level at 10 uM measured after 24 hrs by Western blot assay; type: functional, cell-based
[35] = system: MCF7; assay: Induction of apoptosis in human MCF7 cells at 10 uM measured after 24 hrs by AnnexinV/[…]-PI staining based flow cytometry method; type: functional

Row | SMILES | logP [9] | IC50 [1] [µM] | Activity [2] [%] | viability at 20 µM [3] [%] | IC50 [4] [µM] | IC50 [5] [µM] | Activity [6] [%] | Activity [7] [%] | IC50 [8] [µM] | Activity [10] [%] | Activity [11] [%] | IC50 [12] [µM] | Activity [13] [%] | Activity [14] [%] | IC50 [15] [µM] | Activity [23] | further results
1 | OC[C@H]1NC[C@H](O)[C@@H](O)[C@@H]1O [DUVOGLUSTAT] | -0.68 | > 10 | 19 | 96.6 | > 10 | > 10 | 1.19 | 49.59 | > 10 | 78.4 | 0.409 | > 10 | 1.75 | 31.41 | > 10 |  | 
2 | COc1ccc(-c2oc3cc(OC)cc(OC)c3c(=O)c2OCCCCCCCCN2C[C@H](O)[C@@H](O)[C@H](O)[C@H]2CO)cc1 | 1.65 | > 10 |  |  | 7.6 | > 10 |  |  | > 10 |  |  | 8.8 |  |  | > 10 |  | 
3 | O=c1c(O)c(-c2ccc(O)cc2)oc2cc(O)cc(O)c12 [KAEMPFEROL] |  | > 10 | 7.02 | 95.4 | > 10 | > 10 | 1.61 | 53.49 | > 10 | 79.9 | 0.556 | > 10 | 2.43 | 29.49 | > 10 | Active | 

Second part, led by results:

Row | logP [9] | SMILES | IC50 [1] [µM] | Activity [2] [%] | viability at 20 µM [3] [%] | IC50 [4] [µM] | IC50 [5] [µM] | Activity [6] [%] | Activity [7] [%] | IC50 [8] [µM] | Activity [10] [%] | Activity [11] [%] | IC50 [12] [µM] | Activity [13] [%] | Activity [14] [%] | IC50 [15] [µM] | Activity [23] | further results
4 | 2.92 | COc1ccc(-c2oc3cc(OC)cc(OC)c3c(=O)c2OCCCCCCCCCCCN2C[C@H](O)[C@@H](O)[C@H](O)[C@H]2CO)cc1 | 7.1 | 0.87 | 27.3 | 5.1 | 4.5 | 4.83 | 42.64 | 7.7 | 46 | 37.9 | 7.8 | 29.9 | 56.48 | 3.6 | Active | Activity [16]: 18.07%; Activity [17]: Active; Activity [18]: Dose-Dependent Effect; Activity [19]: Active; Activity [20]: 0.508%; Activity [21]: 67.8%; Activity [22]: Active; Activity [24]: Active; Activity [25]: 55.3%; Activity [26]: Active; Activity [27]: 56.5%; Activity [28]: 5.97%; Activity [29]: 26.6%; viability at 10 µM [30]: 89.5%; Activity [31]: 4.03%; Activity [32]: Active; Activity [33]: Active; Activity [34]: Active; Activity [35]: 6.48%
5 | 0.49 | COc1ccc(-c2oc3cc(OC)cc(OC)c3c(=O)c2OCCCCCN2C[C@H](O)[C@@H](O)[C@H](O)[C@H]2CO)cc1 | > 10 |  |  | > 10 | > 10 |  |  | > 10 |  |  | > 10 |  |  | > 10 |  | 

— ChEMBL document CHEMBL5038584, “Dual-Targeting Antiproliferation Hybrids Derived from 1-Deoxynojirimycin and Kaempferol Induce MCF-7 Cell Apoptosis through the Mitochondria-Mediated Pathway” (J Nat Prod, 2021)
